In US20240041042A1, “1-(PYRIDYL)-5-AZINYLPYRAZOLE DERIVATIVES, AND THEIR USE FOR CONTROL OF UNDESIRED PLANT GROWTH” (Bayer Aktiengesellschaft, priority 2020, published 2024):
Like-named read-outs stand apart in the source and are kept apart here.

Experiments:
Format in all cases: in vivo
Lolium rigidum (LOLRI) [1] = experiment: Post-emergence herbicidal action against LOLRI
Summary of the method: (§1)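 Values are percent visual activity (0% like control, 100% plants dead) after about 3 weeks in the greenhouse. Treatment: post-emergence spray at one-leaf stage, 600 l/ha spray volume, 0.5% additive, doses 320 g/ha or lower.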

[2] = system: Pharbitis purpurea (PHBPU); experiment: Post-emergence herbicidal action against PHBPU
Summary of the method: as §1

[3] = system: Alopecurus myosuroides (ALOMY); experiment: Pre-emergence herbicidal action against ALOMY; conditions: scored visually after about 3 weeks, 100% = plants have died
Summary of the method: (§2)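 Pre-emergence soil-surface spray of compound, formulated as wettable powder or emulsion concentrate, in aqueous suspension or emulsion with 0.5% additive (600 l/ha; rate 320 g/ha or less). Activity rated visually after roughly 3 weeks in the greenhouse as a percentage of untreated controls, 0% meaning no difference.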

[4] = system: Polygonum convolvulus (POLCO); experiment: Post-emergence herbicidal action against POLCO
Summary of the method: as §1

[5] = system: Matricaria inodora (MATIN); experiment: Post-emergence herbicidal action against MATIN; conditions: dosage 80 g/ha
Summary of the method: as §1

[6] = system: Abutilon theophrasti (ABUTH); experiment: Pre-emergence herbicidal action against ABUTH; conditions: Dosage column 320 g/ha (title prints 3200 g/ha); scored visually after about 3 weeks; 100% = plants have died
Summary of the method: as §2

[7] = system: Matricaria inodora (MATIN); experiment: Pre-emergence herbicidal action against MATIN
Summary of the method: as §2

[8] = system: Echinochloa crus-galli (ECHCG); experiment: Post-emergence herbicidal action against ECHCG
Summary of the method: as §1

[9] = system: Amaranthus retroflexus (AMARE); experiment: Pre-emergence herbicidal action against AMARE; conditions: visual scoring after about 3 weeks vs untreated controls
Summary of the method: as §2

[10] = system: Polygonum convolvulus (POLCO); experiment: Pre-emergence herbicidal action against POLCO
Summary of the method: as §2

[11] = system: Verconica persica (VERPE); experiment: Pre-emergence herbicidal action against VERPE; conditions: dosage 320 g/ha
Summary of the method: as §2

Lolium rigidum (LOLRI) [12] = experiment: Pre-emergence herbicidal action against LOLRI; conditions: dosage 320 g/ha
Summary of the method: as §2

[13] = system: Echinochloa crus-galli (ECHCG); experiment: Pre-emergence herbicidal action against ECHCG
Summary of the method: as §2

[14] = system: Pharbitis purpurea (PHBPU); experiment: Pre-emergence herbicidal action against PHBPU
Summary of the method: as §2

[15] = system: Amaranthus retroflexus (AMARE); experiment: Post-emergence herbicidal action against AMARE
Summary of the method: as §1

[16] = system: Verconica persica (VERPE); experiment: Post-emergence herbicidal action against VERPE
Summary of the method: as §1

[17] = system: Abutilon theophrasti (ABUTH); experiment: Post-emergence herbicidal action against ABUTH; conditions: visual rating about 3 weeks after treatment vs untreated controls (100% = plants have died, 0% = like control plants)
Summary of the method: as §1

Oryza sativa (ORYSA) = conditions: crop plant compatibility
Summary of the method: (§3)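 Percent effect on the crop was judged by eye against untreated controls, where 0% means like control and 100% means dead plants. Plants had been sprayed post-emergence at the one-leaf stage and then kept under optimum greenhouse conditions for about 3 weeks.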

[18] = system: Triticum aestivum (TRZAS); conditions: crop plant compatibility, 20 g/ha, effect vs untreated controls
Summary of the method: as §3

Zea mays (ZEAMX) [19] = conditions: for Post-emergence action against ZEAMX in %: crop plant compatibility, 80 g/ha, effect vs untreated controls
Summary of the method: as §3

Viola tricolor (VIOTR) [20] = experiment: Pre-emergence herbicidal action against VIOTR
Summary of the method: as §2

[21] = system: Alopecurus myosuroides (ALOMY); experiment: Post-emergence herbicidal action against ALOMY; conditions: visual rating about 3 weeks after treatment vs untreated controls (100% = plants have died, 0% = like control plants)
Summary of the method: as §1

Setaria viridis (SETVI) [22] = experiment: Pre-emergence herbicidal action against SETVI
Summary of the method: as §2

Avena fatua (AVEFA) [23] = experiment: Post-emergence herbicidal action against AVEFA; conditions: visual rating about 3 weeks after treatment
Summary of the method: as §1

Avena fatua (AVEFA) [24] = experiment: Pre-emergence herbicidal action against AVEFA; conditions: visual scoring after about 3 weeks vs untreated controls
Summary of the method: as §2

Setaria viridis (SETVI) [25] = experiment: Post-emergence herbicidal action against SETVI
Summary of the method: as §1

Viola tricolor (VIOTR) [26] = experiment: Post-emergence herbicidal action against VIOTR; conditions: 320 g/ha
Summary of the method: as §1

Zea mays (ZEAMX) [27] = conditions: pre-emergence, 80 g/ha, crop plant compatibility, in comparison to untreated controls
Summary of the method: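 Scoring: visual, % of untreated control, about 3 weeks after a pre-emergence application to the soil surface. Application used WP or EC formulations diluted in water with 0.5% additive at 600 l/ha; dosage levels are marked by suffixes a, b and c.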

[28] = 80 g/ha, visual rating about 3 weeks after treatment vs untreated controls (100% = plants have died, 0% = like control plants)
[29] = 80 g/ha, effect in comparison to untreated controls
[30] = 320 g/ha, visual rating about 3 weeks after treatment

Row | Post-emergence action against ORYSA in % (Oryza sativa (ORYSA); [29]) | SMILES | Post-emergence action against PHBPU in % ([2]; dosage 80 g/ha) | Pre-emergence action against ALOMY ([3]; 320 g/ha) | Pre-emergence action against ABUTH [6] | Pre-emergence action against MATIN in % ([7]; dosage 80 g/ha) | Pre-emergence action against MATIN in % ([7]; dosage 320 g/ha) | Post-emergence action against ECHCG in % ([8]; dosage 80 g/ha) | Pre-emergence action against AMARE in % ([9]; 320 g/ha) | Pre-emergence action against POLCO in % ([10]; dosage 320 g/ha) | Pre-emergence action against VERPE in % [11] | Pre-emergence action against LOLRI in % (Lolium rigidum (LOLRI) [12]) | Pre-emergence action against ECHCG in % ([13]; dosage 320 g/ha) | Pre-emergence action against PHBPU in % ([14]; dosage 320 g/ha) | Post-emergence action against AMARE in % [15, 28] | Post-emergence action against VERPE in % ([16]; dosage 80 g/ha) | Post-emergence action against ABUTH in % ([17]; 80 g/ha) | Pre-emergence action against VIOTR in % (Viola tricolor (VIOTR) [20]; 320 g/ha, Viola tricolor) | Pre-emergence action against VIOTR in % (Viola tricolor (VIOTR) [20]; dosage 80 g/ha) | Post-emergence action against ALOMY in % ([21]; 80 g/ha) | Pre-emergence action against SETVI in % (Setaria viridis (SETVI) [22]; dosage 320 g/ha) | also measured
1 | 10% | COC(=O)[C@H](C)COC(=O)COc1nn(-c2ccccn2)c(-c2cncc(F)c2)c1Cl [Example I-74] | 90% | 100% | 90% | 90% | 90% | 90% | 100% | 100% | 100% | 100% | 100% | 90% | 80% | 80% | 80% | 100% | 90% | 100% | 100% | Post-emergence action against LOLRI in % (Lolium rigidum (LOLRI) [1]; dosage 80 g/ha): 90%; Pre-emergence action against ALOMY ([3]; 80 g/ha): 80%; Post-emergence action against POLCO in % ([4]; dosage 80 g/ha): 90%; Post-emergence action against MATIN in % [5]: 90%; Pre-emergence action against AMARE in % ([9]; 80 g/ha): 90%; Pre-emergence action against ECHCG in % ([13]; dosage 80 g/ha): 80%; Pre-emergence action against PHBPU in % ([14]; dosage 80 g/ha): 90%; Post-emergence action against ORYSA in % (Oryza sativa (ORYSA); 20 g/ha, effect vs untreated controls): 0%; Post-emergence action against TRZAS in % [18]: 0%; Post-emergence action against ZEAMX in % (crop plant compatibility) (Zea mays (ZEAMX) [19]; 20 g/ha, ZEAMX, effect in comparison to untreated controls): 10%; Pre-emergence action against SETVI in % (Setaria viridis (SETVI) [22]; dosage 80 g/ha): 90%; Post-emergence action against AVEFA in % (Avena fatua (AVEFA) [23]; 80 g/ha): 90%; Pre-emergence action against AVEFA in % (Avena fatua (AVEFA) [24]; 320 g/ha): 80%; Post-emergence action against SETVI in % (Setaria viridis (SETVI) [25]; dosage 80 g/ha): 80%
2 | 10% | CCOC(=O)COc1nn(-c2nc(F)ccc2F)c(-c2ccc(F)nc2)c1Br [Example I-330] | 80% | 100% | 100% | 80% | 90% | 80% | 100% | 90% | 90% | 90% | 100% | 90% | 80% | 80% | 80% | 100% | 90% | 80% | 100% | Post-emergence action against LOLRI in % (Lolium rigidum (LOLRI) [1]; dosage 320 g/ha): 90%; Post-emergence action against PHBPU in % ([2]; dosage 320 g/ha): 90%; Post-emergence action against ECHCG in % ([8]; dosage 320 g/ha): 90%; Post-emergence action against AMARE in % [15, 30]: 80%; Post-emergence action against VIOTR in % (Viola tricolor (VIOTR) [26]): 80%; Pre-emergence action against ZEAMX in % (Zea mays (ZEAMX) [27]): 20%; Post-emergence action against VERPE in % ([16]; 320 g/ha, VERPE): 80%; Post-emergence action against ABUTH in % ([17]; 320 g/ha): 80%; Post-emergence action against ZEAMX in % (Zea mays (ZEAMX) [19]): 10%; Post-emergence action against ALOMY in % ([21]; 320 g/ha): 90%; Post-emergence action against AVEFA in % (Avena fatua (AVEFA) [23]; 320 g/ha): 80%; Pre-emergence action against AVEFA in % (Avena fatua (AVEFA) [24]; 80 g/ha): 80%; Pre-emergence action against AVEFA in % (Avena fatua (AVEFA) [24]; 320 g/ha): 90%; Post-emergence action against SETVI in % (Setaria viridis (SETVI) [25]; dosage 320 g/ha): 80%
3 | 20% | CCOC(=O)COc1nn(-c2nc(F)ccc2F)c(-c2ccc(F)nc2)c1Cl [Example I-315] | 80% | 100% | 80% | 80% | 90% | 90% | 90% | 90% | 100% | 100% | 100% | 90% | 80% | 80% | 80% | 100% | 90% | 80% | 100% | Post-emergence action against LOLRI in % (Lolium rigidum (LOLRI) [1]; dosage 320 g/ha): 90%; Post-emergence action against PHBPU in % ([2]; dosage 320 g/ha): 80%; Pre-emergence action against ALOMY ([3]; 80 g/ha): 100%; Post-emergence action against POLCO in % ([4]; dosage 80 g/ha): 80%; Post-emergence action against POLCO in % ([4]; dosage 320 g/ha): 80%; Post-emergence action against ECHCG in % ([8]; dosage 320 g/ha): 100%; Pre-emergence action against AMARE in % ([9]; 80 g/ha): 90%; Pre-emergence action against POLCO in % ([10]; dosage 80 g/ha): 80%; Pre-emergence action against ECHCG in % ([13]; dosage 80 g/ha): 90%; Pre-emergence action against PHBPU in % ([14]; dosage 80 g/ha): 90%; Post-emergence action against AMARE in % [15, 30]: 80%; Post-emergence action against VIOTR in % (Viola tricolor (VIOTR) [26]): 80%; Pre-emergence action against ZEAMX in % (Zea mays (ZEAMX) [27]): 10%; Post-emergence action against VERPE in % ([16]; 320 g/ha, VERPE): 90%; Post-emergence action against ABUTH in % ([17]; 320 g/ha): 80%; Post-emergence action against ZEAMX in % (Zea mays (ZEAMX) [19]): 20%; Post-emergence action against ALOMY in % ([21]; 320 g/ha): 90%; Post-emergence action against AVEFA in % (Avena fatua (AVEFA) [23]; 320 g/ha): 80%; Pre-emergence action against AVEFA in % (Avena fatua (AVEFA) [24]; 320 g/ha): 90%; Post-emergence action against SETVI in % (Setaria viridis (SETVI) [25]; dosage 320 g/ha): 80%
